# Target: T1, FGFR1-GST (Homo sapiens, UniProt P11362)
# T1 construct: GST; made in house
# Test: FGFR-1 TR-FRET biochemical assay
# Details: bounds given in nM
# Procedure, shortened: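 LANCE TR-FRET with 5 nM FGFR1-GST, 0.6 uM ATP, 25 nM biotin-poly GT in HEPES pH 7.5/MgCl2, 1% DMSO; compound added before enzyme, 1 h at room temperature. 665/615 nm ratio, background without ATP; % inhibition over 10 μM–0.128 nM final for IC50.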
# T1 sequence (P11362 22-822): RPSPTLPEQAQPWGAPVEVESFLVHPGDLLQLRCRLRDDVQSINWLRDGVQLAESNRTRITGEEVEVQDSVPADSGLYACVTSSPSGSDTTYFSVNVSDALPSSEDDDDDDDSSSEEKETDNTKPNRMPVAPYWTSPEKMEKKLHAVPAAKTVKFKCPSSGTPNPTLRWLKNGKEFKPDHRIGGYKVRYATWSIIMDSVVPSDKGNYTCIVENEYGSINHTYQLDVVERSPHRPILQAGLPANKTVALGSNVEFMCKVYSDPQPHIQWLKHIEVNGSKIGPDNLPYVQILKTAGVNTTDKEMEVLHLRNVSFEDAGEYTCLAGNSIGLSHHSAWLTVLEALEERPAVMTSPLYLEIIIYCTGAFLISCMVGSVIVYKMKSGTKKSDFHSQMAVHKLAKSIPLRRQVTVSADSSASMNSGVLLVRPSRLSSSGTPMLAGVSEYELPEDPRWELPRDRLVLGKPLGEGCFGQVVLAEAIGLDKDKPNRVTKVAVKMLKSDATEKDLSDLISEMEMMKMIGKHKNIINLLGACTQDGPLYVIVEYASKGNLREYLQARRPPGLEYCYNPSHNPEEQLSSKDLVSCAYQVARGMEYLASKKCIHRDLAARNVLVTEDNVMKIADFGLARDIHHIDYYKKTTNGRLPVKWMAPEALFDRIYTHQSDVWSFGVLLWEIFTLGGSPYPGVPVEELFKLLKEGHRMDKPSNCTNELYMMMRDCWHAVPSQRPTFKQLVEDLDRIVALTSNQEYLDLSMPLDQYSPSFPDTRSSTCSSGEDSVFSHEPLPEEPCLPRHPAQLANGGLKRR
row,Structure (SMILES),IC50
1,"COCc1c(-c2ccc(NC(=O)Nc3cc(C(F)(F)F)ccc3Cl)cc2)c2c(N)ncnn2c1CN1CCOCC1 [Example 49, N-{4-[4-amino-6-(methoxymethyl)-7-(morpholin-4-ylmethyl)pyrrolo[2,1-f][1,2,4]triazin-5-yl]phenyl}-N′-[2-chloro-5-(trifluoromethyl)phenyl]urea]",10 to 100 nM
2,"Nc1ncnn2c(CN3CCOCC3)c(C(F)F)c(-c3ccc(NC(=O)Nc4cc(C(F)(F)F)ccc4F)c(F)c3)c12 [Example 99, N-{4-[4-amino-6-(difluoromethyl)-7-(morpholin-4-ylmethyl)-pyrrolo[2,1-f][1,2,4]triazin-5-yl]-2-fluorophenyl}-N′-[2-fluoro-5-(trifluoromethyl)phenyl]urea]",10 to 100 nM
3,"Nc1ncnn2c(CN3CCOCC3)c(-c3cnco3)c(-c3ccc(NC(=O)Nc4cc(F)cc(C(F)(F)F)c4)cc3)c12 [Example 29, N-4-[4-amino-7-(morpholin-4-ylmethyl)-6-(1,3-oxazol-5-yl)pyrrolo[2,1-f][1,2,4]triazin-5-yl]phenyl-N′-[3-fluoro-5-(trifluoromethyl)phenyl]urea]",< 10 nM
4,"Cc1cc(-c2c(C)c(CN3CCOCC3)n3ncnc(N)c23)ccc1NC(=O)Nc1cc(C(F)(F)F)ccn1 [Example 119, N-{4-[4-amino-6-methyl-7-(morpholin-4-ylmethyl)pyrrolo[2,1-f][1,2,4]triazin-5-yl]-2-methylphenyl}-N′-[4-(trifluoromethyl)pyridin-2-yl]urea]",< 10 nM
5,"CCOC(=O)c1c(-c2ccc(NC(=O)Nc3cc(C(F)(F)F)ccn3)cc2)c2c(N)ncnn2c1C#N [Example 6, ethyl 4-amino-7-cyano-5-{4-[({[4-(trifluoromethyl)pyridin-2-yl]amino}carbonyl)amino]phenyl}pyrrolo[2,1-f][1,2,4]triazine-6-carboxylate]",> 100 nM
6,"COCc1c(-c2ccc(NC(=O)Nc3cc(C(F)(F)F)ccc3F)c(F)c2)c2c(N)ncnn2c1CN1CCOC(CO)C1 (stereo not shown) [Example 47, N-{4-[4-amino-7-{[2-(hydroxymethyl)morpholin-4-yl]methyl}-6-(methoxymethyl)pyrrolo[2,1-f][1,2,4]triazin-5-yl]-2-fluorophenyl}-N′-[2-fluoro-5-(trifluoromethyl)-phenyl]urea]",10 to 100 nM

# Further lines, results first:
row,IC50,Structure (SMILES)
1,< 10 nM,"Nc1ncnn2c(CN3CCOCC3)c(Cl)c(-c3ccc(NC(=O)Nc4cc(C(F)(F)F)ccc4F)cc3)c12 [Example 154, N-{4-[4-amino-6-chloro-7-(morpholin-4-ylmethyl)pyrrolo[2,1-f][1,2,4]triazin-5-yl]phenyl}-N′-[2-fluoro-5-(trifluoromethyl)phenyl]urea]"
2,10 to 100 nM,"CC(=O)c1c(-c2ccc(NC(=O)Nc3ccc(OC(F)(F)F)cc3)c(F)c2)c2c(N)ncnn2c1CN1CCOCC1 [Example 59, N-4-[6-acetyl-4-amino-7-(morpholin-4-ylmethyl)pyrrolo[2,1-f][1,2,4]triazin-5-yl]-2-fluorophenyl-N′-[4-(trifluoromethoxy)phenyl]urea]"
3,< 10 nM,"COCc1c(-c2ccc(NC(=O)Nc3cc(C(F)(F)F)ccc3F)cc2)c2c(N)ncnn2c1CN1CCNC(=O)C1 [Example 19, N-(4-{4-amino-6-(methoxymethyl)-7-[(3-oxopiperazin-1-yl)methyl]pyrrolo[2,1-f][1,2,4]triazin-5-yl}phenyl)-N′-[2-fluoro-5-(trifluoromethyl)phenyl]urea]"
4,10 to 100 nM,"COCc1c(-c2ccc(NC(=O)Nc3cc(C(F)(F)F)ccc3F)c(F)c2)c2c(N)ncnn2c1CN1CCS(=O)(=O)CC1 [Example 43, N-{4-[4-amino-7-[(1,1-dioxidothiomorpholin-4-yl)methyl]-6-(methoxymethyl)pyrrolo[2,1-f][1,2,4]triazin-5-yl]-2-fluorophenyl}-N′-[2-fluoro-5-(trifluoromethyl)phenyl]urea]"
5,> 100 nM,"N#Cc1c(C(=O)O)c(-c2ccc(NC(=O)Nc3cc(C(F)(F)F)ccn3)cc2)c2c(N)ncnn12 [Example 8, 4-amino-7-cyano-5-{4-[({[4-(trifluoromethyl)pyridin-2-yl]amino}carbonyl)amino]phenyl}pyrrolo[2,1-f][1,2,4]triazine-6-carboxylic acid]"

# Same assay, conditions: upper bound in μM
row,Structure (SMILES),IC50
1,"N#Cc1c(C(=O)O)c(-c2ccc(NC(=O)Nc3cc(C(F)(F)F)ccn3)cc2)c2c(N)ncnn12 [Example 8, 4-amino-7-cyano-5-{4-[({[4-(trifluoromethyl)pyridin-2-yl]amino}carbonyl)amino]phenyl}pyrrolo[2,1-f][1,2,4]triazine-6-carboxylic acid]",< 1000 nM
2,"CCOC(=O)c1c(-c2ccc(NC(=O)Nc3cc(C(F)(F)F)ccn3)cc2)c2c(N)ncnn2c1C#N [Example 6, ethyl 4-amino-7-cyano-5-{4-[({[4-(trifluoromethyl)pyridin-2-yl]amino}carbonyl)amino]phenyl}pyrrolo[2,1-f][1,2,4]triazine-6-carboxylate]",< 1000 nM

# Reference: US8829185B2 (Bayer HealthCare LLC, priority 2005, dated 2014)
